Legend:
[1] = system: rats exposed to acute altitude hypoxia; assay: Protein metabolism in rats exposed to acute altitude hypoxia; type: in vivo, Wistar rat
Method: (§1) Select healthy Wistar rats weight 160-200 g, half female and half male. After feeding for 3 days, these Wistar rats are randomly divided into ten groups according to their body weight, each group has 16±2 rats. The groups are divided as follows: five groups of the hypoxic exposure drug test group, respectively, are given 0.91 mg/kg, 1.83 mg/kg, 3.66 mg/kg, 7.31 mg/kg, and 14.63 mg/kg drugs. […] After continuous intragastric administration for 7 days, the animals in the hypoxic exposure group are simultaneously put into the decompression and hypoxia compound experimental chamber, the hatch is closed, and the pressure is reduced at a speed of 10 m/s. After being raised to an altitude of 6000 m and maintained for 8 hours, the speed in 10 m/s drops is reduced to normal altitude, open the hatch, and then take out the animal, collect blood samples (after standing for 1 hour, the supernatant is centrifuged and stored at −20° C.), and liver tissue samples. Detection indicator includes body weight, serum blood glucose, ATP, lactic acid, endothelin, nitric oxide, SOD, CO, MDA related to oxidative stress, and total protein, albumin, triglycerides, total cholesterol, high-density lipoprotein cholesterol, low-density lipoprotein cholesterol, glutamic pyruvic transaminase, total bilirubin, gluamic oxalacetic transaminase, serum urea nitrogen, creatinine, uric acid, lactate dehydrogenase, creatine kinase, α-hydroxybutyrate dehydrogenase; liver ATP, hepatic glycogen. Except that the formal oxygen control animal group is not put into the decompression and hypoxia compound experimental chamber, other experimental conditions and detection indicators are the same.
(§2) Measure blood glucose, total protein, albumin, triglycerides, total cholesterol, high-density lipoprotein cholesterol, low-density lipoprotein cholesterol, glutamic-pyruvic transaminase, total bilirubin, glutamic oxalacetic transaminase, serum urea nitrogen, creatinine, uric acid, lactate dehydrogenase, creatine kinase, α-hydroxybutyrate dehydrogenase, blood homocysteine by using an automatic blood biochemical analyzer.

[2] = system: rats exposed to acute altitude hypoxia; assay: Serum homocysteine in rats exposed to acute altitude hypoxia; type: in vivo, Wistar rat
Method: as §1, §2

[3] = system: mice exposed to high altitude hypoxia; assay: Exhaustive swimming experiment in mice exposed to high altitude hypoxia (6000 m); type: in vivo, Kunming mice; settings: for Exhausted swimming survival time: 7 days; for effect on survival time after exhausting swimming / working ability under hypoxia: mice under low oxygen exposure
Excerpt: Select healthy male Kunming mice weight 18-22 g.

[4] = Body weight of male mice in exhaustive swimming experiment; settings: 0.16 g/kg
Method: Select healthy male Kunming mice weight 18-22 g. After feeding for 3 days, they are randomly divided into seven groups according to their body weight, each group has 10±1 mice. The groups are divided as follows: 5 groups of the drug test group, respectively, are given 1.32 mg/kg, 2.64 mg/kg, 5.28 mg/kg, 10.56 mg/kg, and 21.12 mg/kg drugs by gavage administration. […] After administration for 7 days, select an exhaustive swimming experiment under hypoxic conditions perform physical work ability evaluation; the observation index is an exhaustive swimming time. In the decompression and hypoxia compound laboratory chamber, decompression hypoxia is performed to an altitude of 6000 m, the swimming box is filled with water at a depth of 40 cm and the water temperature is 25° C. The animal is placed in the swimming box, and use a stopwatch to record a time from the start of swimming to exhaustion of the animal. Exhaustive swimming time is the time when an animal still cannot surface for 9 s after sinking.

[5] = female rats, hypoxia, 0.11 g/kg
[6] = female rats, normoxia, 0.11 g/kg
[7] = male mice, 6000 m, acetazolamide positive drug control (0.16 g/kg)
[8] = female rats, hypoxia, 0.91 mg/kg
[9] = female rats, hypoxia, 1.83 mg/kg
[10] = female rats, hypoxia, 3.66 mg/kg
[11] = female rats, hypoxia, 14.63 mg/kg
[12] = female rats, normoxia, 3.66 mg/kg
[13] = male rats exposed to hypoxia, low-dose
[14] = male rats, hypoxia, 14.63 mg/kg

## CC(=O)Nc1nnc(S(N)(=O)=O)s1 [Acetazolamide, reference compound]
[1]; female rats
  effect on serum total protein content: has been not found
[1]; [5]
  albumin (second column): 29.18 ± 1.68 g/L
[1]; female rats, normoxia
  effect on serum albumin content: can slightly increase
[1]; [6]
  albumin (second column): 32.13 ± 0.45 g/L
[1]; male rats exposed to hypoxia
  effect on serum total protein content: is not found
[1]; male rats, hypoxia, 0.11 g/kg
  albumin (second column): 27.87 ± 1.140 g/L
[2]; [5]
  Serum homocysteine: 9.54 ± 0.98 µmol/L
[2]; female rats, normoxia
  effect on serum homocysteine: no significant effects
[2]; [6]
  Serum homocysteine: 9.33 ± 1.16 µmol/L
[2]; hypoxia exposed female rats
  effect on serum homocysteine: no significant effects
[2]; hypoxia exposed male rats
  effect on serum homocysteine: have been not found
[2]; male rats, hypoxia, 0.11 g/kg
  Serum homocysteine: 11.13 ± 1.67 µmol/L
[3]; male mice, 6000 m
  start time of exhaustion swimming death: died earlier
[3]; [7]
  Exhausted swimming survival time: 130.64 ± 79.46 min
  increasing rate of survival time: 2.10%
[3]
  effect on survival time after exhausting swimming / working ability under hypoxia: no effect
[4]
  body weight male 1 day: 21.28 ± 1.38 g
  body weight male 7 days: 23.05 ± 4.41 g

## O=C(O)c1cc(C(=O)O)c2c(n1)C(=O)C(=O)c1cc(C(=O)O)[nH]c1-2 [PQQ, pyrroloquinoline quinone]
[1]; female rats, high-dose
  effect on serum total protein content: the same as the hypoxia model group
[1]; [8]
  albumin (second column): 31.03 ± 0.98 g/L
[1]; [9]
  albumin (second column): 29.67 ± 0.98 g/L
[1]; [10]
  albumin (second column): 29.33 ± 0.62 g/L
[1]; [11]
  albumin (second column): 30.16 ± 1.40 g/L
[1]; female rats, hypoxia, 7.3 l mg/kg
  albumin (second column): 31.49 ± 0.70 g/L
[1]; female rats, normoxia
  effect on total serum protein content: no significant effects
[1]; [12]
  albumin (second column): 30.87 ± 1.41 g/L
[1]; hypoxia exposed female rats (PQQ low-dose)
  effect on serum albumin: can reduce the effect of serum albumin in female rats increase caused by hypoxic exposure
[1]; hypoxia exposed female rats, low-dose
  effect on serum total protein content: can slightly reduce
[1]; [13]
  effect on serum albumin content: can reduce the effect of hypoxia exposure on the increase in serum albumin content
  effect on serum total protein content: can slightly reduce
[1]; male rats, high-dose
  effect on serum total protein content: the same as that of the hypoxia model group
[1]; male rats, hypoxia, 0.91 mg/kg
  albumin (second column): 22.55 ± 2.53 g/L
[1]; male rats, hypoxia, 1.83 mg/kg
  albumin (second column): 26.14 ± 2.04 g/L
[1]; male rats, hypoxia, 3.66 mg/kg
  albumin (second column): 28.60 ± 1.12 g/L
[1]; male rats, hypoxia, 7.31 mg/kg
  albumin (second column): 28.06 ± 1.31 g/L
[1]; [14]
  albumin (second column): 28.38 ± 0.90 g/L
[2]; [8]
  Serum homocysteine: 9.43 ± 1.4 µmol/L
[2]; [9]
  Serum homocysteine: 10.66 ± 2.13 µmol/L
[2]; [10]
  Serum homocysteine: 9.63 ± 1.97 µmol/L
[2]; female rats, hypoxia, 7.31 mg/kg
  Serum homocysteine: 8.6 ± 1.72 µmol/L
[2]; [11]
  Serum homocysteine: 8.11 ± 1.37 µmol/L
[2]; female rats, normoxia
  effect on serum homocysteine: no significant effects
[2]; [12]
  Serum homocysteine: 9.76 ± 1.16 µmol/L
[2]; hypoxia exposed female rats
  effect on serum homocysteine: no significant effects
[2]; hypoxia exposed male rats
  effect on serum homocysteine: have been not found
[2]; male rats, hypoxia, 0.91 mg/kg
  Serum homocysteine: 11.18 ± 2.09 µmol/L
[2]; male rats, hypoxia, 1.83 mg/kg
  Serum homocysteine: 13.24 ± 3.87 µmol/L
[2]; male rats, hypoxia, 3.66 mg/kg
  Serum homocysteine: 13.65 ± 3.24 µmol/L
[2]; male rats, hypoxia, 7.31 mg/kg
  Serum homocysteine: 11.48 ± 2.36 µmol/L
[2]; [14]
  Serum homocysteine: 12.78 ± 2.87 µmol/L
[3]; male mice, 6000 m
  start time of exhaustion swimming death: delayed
[3]; male mice, 6000 m, 1.32 mg/kg
  increasing rate of survival time: 52.49%
  Exhausted swimming survival time: 199.21 ± 98.54 min
[3]; male mice, 6000 m, 2.64 mg/kg
  increasing rate of survival time: 109.05%
  Exhausted swimming survival time: 273.10 ± 63.07 min
[3]; male mice, 6000 m, 5.28 mg/kg
  increasing rate of survival time: 32.54%
  Exhausted swimming survival time: 173.15 ± 116.32 min
[3]; male mice, 6000 m, 10.56 mg/kg
  increasing rate of survival time: 49.30%
  Exhausted swimming survival time: 195.04 ± 59.81 min
[3]; male mice, 6000 m, 21.12 mg/kg
  increasing rate of survival time: 101.47%
  Exhausted swimming survival time: 263.20 ± 48.27 min
[3]; male mice, 6000 m, each PQQ dose group
  time at which mice are completely dead: about 400 minutes
[3]
  effect on survival time after exhausting swimming / working ability under hypoxia: can prolong the survival time of mice after exhausting swimming

From US20220023289A1, “Application Of Pyrroloquinoline Quinone In Preparation Of Medicament Used For Preventing And Treating Acute Altitude Sickness And Acute Altitude Hypoxia Injury” (priority 2018, published 2022)
